Source: patent EP2326328B1, “USE OF DIHYDRALAZINE FOR THE TREATMENT OF DISEASES RELATED TO ELEVATED SEMICARBAZIDE SENSITIVE AMINE-OXIDASE (SSAO) ACTIVITY” (Semmelweis Egyetem, priority 2008, dated 2010)

Experiments:
[1] = molecular target: T1, SSAO (Homo sapiens, UniProt Q16853); test: serum SSAO activity of treated type 2 diabetic patients; assay type: in vivo; conditions: for SSAO activity (pmol/mg protein/hour): serum, oral 14.5 mg dihydralazine sulphate twice daily
T1 construct: from tissue; host or cells: human serum
T1 sequence (Q16853 29-763 limits assumed): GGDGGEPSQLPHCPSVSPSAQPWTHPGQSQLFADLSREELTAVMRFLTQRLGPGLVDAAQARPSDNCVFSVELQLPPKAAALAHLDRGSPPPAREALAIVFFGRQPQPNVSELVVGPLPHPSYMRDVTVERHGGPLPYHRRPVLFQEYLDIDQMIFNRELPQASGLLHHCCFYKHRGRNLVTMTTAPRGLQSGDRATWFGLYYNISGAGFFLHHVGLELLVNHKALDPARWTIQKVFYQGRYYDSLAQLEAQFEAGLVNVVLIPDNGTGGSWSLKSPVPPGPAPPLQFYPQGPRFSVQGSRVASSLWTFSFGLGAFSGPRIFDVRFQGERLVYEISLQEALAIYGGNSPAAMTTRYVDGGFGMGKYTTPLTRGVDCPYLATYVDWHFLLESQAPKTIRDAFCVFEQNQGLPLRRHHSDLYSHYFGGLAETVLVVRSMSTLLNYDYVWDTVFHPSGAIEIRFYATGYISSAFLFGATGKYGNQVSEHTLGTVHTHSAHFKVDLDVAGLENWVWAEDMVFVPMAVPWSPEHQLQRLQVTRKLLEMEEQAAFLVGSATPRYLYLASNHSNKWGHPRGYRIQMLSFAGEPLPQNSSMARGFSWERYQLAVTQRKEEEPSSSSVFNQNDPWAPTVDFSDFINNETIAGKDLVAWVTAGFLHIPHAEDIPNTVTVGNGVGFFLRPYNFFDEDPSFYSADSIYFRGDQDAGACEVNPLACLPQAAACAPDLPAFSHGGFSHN
Procedure: (§1) A radiochemical procedure (Yu P.H., Zuo D.M., Biochem. Pharmacol., 1992, 43, 307-312) was adapted for determining SSAO activities in the human serum. It is based on the determination of the quantity of ^14C-benzaldehyde formed by the enzyme reaction of ^14C-benzylamine.
The preparations containing the serum and the dihydralazine enzyme inhibitor were pre-incubated at room temperature for 20 min. The enzyme reaction was started with ^14C-benzylamine substrate (- 200000 dpm/tube). The samples obtained accordingly were incubated at 37°C for 40 min, then the reaction was stopped by adding 200 µl 2M citric acid solution. In case of the 'blank' sample, citric acid solution was added before adding the substrate, therefore, in this case no enzyme reaction took place. The samples were extracted with 1000 µl 1:1 toluene - ethyl acetate mixture, by vortex method, then centrifuged (2500 g / 5 min). The enzyme activity was determined by liquid scintillation counting (600 µl supernatant + 5ml Aquasafe), using the formula below: ([dpm(sample)-dpm0ʹ] x 1.6 x 10 x 1.5)/(measured substrate activity dpm x mg protein) [formula] standing for: 1.6: extraction volume; 10: molar activity; 1.5: correction factor for the incubation time; dpm: disintegrations per minute (unit of radioactivity)
(§2) After giving their informed consent, patients participating in the study were treated for 56 days taking ½ tablet twice daily of a pharmaceutical composition containing 28.9 mg dihydralazine sulphate (i.e. the ½ tablet contained 14.5 mg dihydralazine sulphate).
Serum SSAO activity was determined from blood samples collected before starting the treatment, and at the 14., 28. and 56. day of the treatment. The blood samples were centrifuged and the supernatant was stored at - 80°C until the measurement of the enzyme activity. SSAO activity was determined applying the method described in the example above.

[2] = blood pressure and pulse of treated type 2 diabetic patients; assay type: in vivo, human; conditions: oral 14.5 mg dihydralazine sulphate twice daily; for RRsyst: blood pressure (systolic): before treatment 153
Procedure: as §2
To measure the efficacy and monitor the safety of the treatment, the following examinations were carried out before starting the treatment and at the 1., 7., 14., 28. and 56. day of the treatment: • 1. ocular examinations: visual acuity (ETDRS chart), slit-lamp examination, measurement of intraocular pressure with applanation tonometry, fundus biomicroscopy with pupil dilation, digital fundus photography. The grade of macular edema was determined via measuring retinal thickness with optical coherency tomography (OCT). • 2. internal medicine examinations: anamnesis, physical examinations, blood pressure, pulse, urine examination. • 3. laboratory examinations: blood glucose, HbA1c, liver function, kidney function, microalbuminuria, metabolic panel of the blood , lipids, CRP.
In the table the following abbreviations were used: • BMI: body mass index - weight (kg) / height (m^2) • RRsyst: blood pressure (systolic) (Hgmm) • RRdiast: blood pressure (diastolic) (Hgmm) • OCT CST (central subfield thickness): the average thickness of the central 1-mm area of the macula • OCT CPT (center point thickness): the thickness of the center point of the retina; normally that is the thinnest point of the macula Table 4.

[3] = molecular target: T2, human serum SSAO (Homo sapiens, UniProt Q16853); test: radiochemical determination of SSAO activity in human serum (14C-benzylamine substrate); assay type: biochemical; conditions: 20 min pre-incubation at room temperature, 37°C 40 min
T2 construct: from tissue; host or cells: human serum
T2 sequence (Q16853 29-763 limits assumed): T1 sequence (Q16853 29-763 limits assumed)
Procedure: In the experiment human serum was used in the following way: blood samples were collected without anticoagulant, then stored at 4°C for 15 minutes and centrifuged (4°C, 2500 g/10 min). The supernatant was stored at -80°C until the measurement of the enzyme activity.
as §1
The preparations containing the serum and the dihydralazine enzyme inhibitor were pre-incubated at room temperature for 20 min. The enzyme reaction was started with ^14C-benzylamine substrate (- 200000 dpm/tube). […] The enzyme activity was determined by liquid scintillation counting (600 µl supernatant + 5ml Aquasafe), using the formula below: ([dpm(sample)-dpm0ʹ] x 1.6 x 10 x 1.5)/(measured substrate activity dpm x mg protein) [formula] standing for: 1.6: extraction volume; 10: molar activity; 1.5: correction factor for the incubation time; dpm: disintegrations per minute (unit of radioactivity)
The inhibition was calculated in the % inhibition compared to the control ('control' sample not containing the inhibitor compound) after correction with the background ('blank' sample). […]

[4] = blood pressure of treated rats, determined in an invasive way; assay type: in vivo; conditions: sc 0.1 or 0.01 M solution (0.1 ml/100 g) once daily for 1-5 days, compared to the control group
Procedure: The blood pressure of the animals was determined in an invasive way. […]

serum SSAO activity ([1]; 2 treated type 2 diabetic patients, oral 14.5 mg dihydralazine sulphate twice daily for 56 days): parallel decrease of serum SSAO activity | SSAO activity (pmol/mg protein/hour) ([1]; 1. patient, 14. day, before treatment 93.02): 62.42 pmol/mg protein/hour | SSAO activity (pmol/mg protein/hour) ([1]; 1. patient, 28. day, before treatment 93.02): 85.73 pmol/mg protein/hour | SSAO activity (pmol/mg protein/hour) ([1]; 1. patient, 56. day, before treatment 93.02): 82.41 pmol/mg protein/hour | SSAO activity (pmol/mg protein/hour) ([1]; 2. patient, 14. day, before treatment 167.56): 127.96 pmol/mg protein/hour | SSAO activity (pmol/mg protein/hour) ([1]; 2. patient, 28. day, before treatment 167.56): 186.36 pmol/mg protein/hour | SSAO activity (pmol/mg protein/hour) ([1]; 2. patient, 56. day, before treatment 167.56): 105.1 pmol/mg protein/hour | IC20 [3]: 500 nM
SMILES: NNc1nnc(NN)c2ccccc12 [dihydralazine]
pulse ([2]; 1. patient, 14. day, before treatment 60): 69 beats/min | RRdiast: blood pressure (diastolic) ([2]; 1. patient, 14. day, before treatment 63): 70 Hgmm | RRsyst: blood pressure (systolic) ([2]; 1. patient, 14. day): 154 Hgmm | pulse ([2]; 1. patient, 28. day, before treatment 60): 69 beats/min | RRdiast: blood pressure (diastolic) ([2]; 1. patient, 28. day, before treatment 63): 68 Hgmm | RRsyst: blood pressure (systolic) ([2]; 1. patient, 28. day): 152 Hgmm | pulse ([2]; 1. patient, 56. day, before treatment 60): 60 beats/min | RRdiast: blood pressure (diastolic) ([2]; 1. patient, 56. day, before treatment 63): 67 Hgmm | RRsyst: blood pressure (systolic) ([2]; 1. patient, 56. day): 161 Hgmm | RRdiast: blood pressure (diastolic) ([2]; 2. patient, 14. day, before treatment 76): 65 Hgmm | pulse ([2]; 2. patient, 14. day, before treatment 79): 89 beats/min | RRsyst: blood pressure (systolic) ([2]; 2. patient, 14. day): 150 Hgmm | RRdiast: blood pressure (diastolic) ([2]; 2. patient, 28. day, before treatment 76): 74 Hgmm | pulse ([2]; 2. patient, 28. day, before treatment 79): 93 beats/min | RRsyst: blood pressure (systolic) ([2]; 2. patient, 28. day): 158 Hgmm | RRdiast: blood pressure (diastolic) ([2]; 2. patient, 56. day, before treatment 76): 64 Hgmm | pulse ([2]; 2. patient, 56. day, before treatment 79): 77 beats/min | RRsyst: blood pressure (systolic) ([2]; 2. patient, 56. day): 126 Hgmm | blood pressure ([2]; type 2 diabetic patients): did not cause significant change of blood pressure | blood pressure of the animals [4]: did not cause lowering of the blood pressure
